The source of these data is patent publication EP0855398B1, “SESQUITERPENE DERIVATIVES HAVING ANTIVIRAL ACTIVITY” (SHIONOGI & CO., LTD., priority 1995, dated 1997).

Each structure is given as a SMILES string. In brackets after ≈: the same amount, converted by molar mass. Like-named read-outs stand apart in the source and are kept apart here. Where only a bound is given, the exact number is not on record here.

The subject of one data set is A/Osaka/5/70 (H3N2). The data set can be described thus: Anti-viral activities against subtypes of influenza A and B (plaque number). The note with it: Influenza A virus, 72 h. Format: cell-based.
In another data set the test system is B/91N759. The data set is described as above. The note with it: Influenza B virus, 72 h. Format: cell-based.
The next data set has as its system A/Kumamoto/5/67 (H2N2). The data set can be described thus: microbe, parasite or virus in culture. It is filed as cell-based. The note with it: Influenza A virus, H2N2, MDCK, 72 h.
Another data set relates to A/WSN/33 (H1N1). The experiment in a line: Anti-viral activities against subtypes of influenza A and B (plaque number). The note with it: Influenza A virus, 72 h. It is filed as cell-based.
The nature of data set [1]: Cytotoxicity for MDCK cells. It is filed as cell-based. The note with it: dog, Cell: MDCK, no virus. The method, then:
As in the measurement of anti-viral activity, samples were added to the cells, and incubated with 50 µl of culture medium instead of the viral dilution. The results are expressed as CC50 which is defined as the concentration of the compound at which 50% of the cells are killed due to the toxicity of the compound.
MDCK cells (derived from dog kidney) were cultured on 12-well plates using E-MEM supplemented by 10% fetal bovine serum. To each well was added 250 µl each of a viral dilution prepared by 10-fold serial dilution with E-MEM, followed by incubation for one hour under 5% CO2 at 37 °C. After removal of the viral solution, one ml of E-MEM containing 0.8% agarose, 0.5% bovine serum albumin and 2 µg/ml trypsin, and an appropriately diluted test compound was added. The plate was inverted, and incubated for 3 days under 5% CO2 at 37 °C. The number of plaques formed was counted, and the IC50 value, which is the concentration of the compound at which the number of plaques decreases by 50% compared to that of control which lacks the test compound, was determined. As in the above section 2), CC50 values for MDCK cells were determined.

The subject of a further data set is A/91/N796 (H3N2). The experiment in a line: Anti-viral activities against subtypes of influenza A and B (plaque number). Format: cell-based. The note with it: Influenza A virus, 72 h.
For data set [2], the system named is Influenza virus A/WSN/33 (H1N1). The data set can be described thus: microbe, parasite or virus in culture. The note with it: viral strain: Influenza virus A/WSN/33 (H1N1), Cell: MDBK, […], 3 days. Format: cell-based.
The test system of another data set is MDBK cells. The note with it: Cell: MDBK, no virus; concentration at which 50% of the cells are killed; 4320 min.
A further data set in a line: in vitro. The note with it: bovine.
In a further data set the test system is influenza A and B. The note with it: administered orally or intraperitoneally; cited from earlier work.
Where [3] appears, read: (3): A/Osaka/5/70 (H3N2), Cell: MDCK, number of plaques decreases by 50%, 3 days, read-out: IC50.
Setting [4] is: (5): B/91N759, Cell: MDCK, number of plaques decreases by 50%, 3 days, read-out: IC50.
Where [5] appears, read: (1): A/WSN/33 (H1N1), Cell: MDCK, number of plaques decreases by 50%, 3 days, read-out: IC50.
Where [6] appears, read: (4): A/91/N796 (H3N2), Cell: MDCK, number of plaques decreases by 50%, 3 days, read-out: IC50.

On to `C[C@H]1CC[C@H]2C(C)(C)[C@@H](O)CC[C@]23Oc2c(c(O)cc4c2CNC4=O)C[C@]13C` [SQ-02-S5(2), (6a R, 7S, 9a S, 11 S, 13a S)-2,3,6,6a, 7,8,9,9a, 10, 11, 12, 13-dodecahydro-5, 11-dihydroxy-6a, 7, 10, 10-tetramethyl-3-oxo-1H-benzo[8,8a][1]benzopyrano[2,3-e]isoindole], for which the IC50 (in general, the concentration at which inhibition is half-maximal) is 0.1 to 1 µg/mL (≈ 0.259 to 2.59 µM) with A/Osaka/5/70 (H3N2) (H3N2, MDCK); 1 µg/mL (≈ 2.59 µM) with B/91N759 (MDCK); 0.1 to 1 µg/mL (≈ 0.259 to 2.59 µM) in the data set on A/Kumamoto/5/67 (H2N2); 0.001 to 0.01 µg/mL (≈ 0.00259 to 0.0259 µM) with A/WSN/33 (H1N1) (MDCK); 1 µg/mL (≈ 2.59 µM) with A/91/N796 (H3N2) (H3N2, MDCK). Moreover, in data set [1], the CC50 at 3 days was 25 µg/mL (≈ 64.9 µM).
In the case of `C[C@H]1CC[C@H]2C(C)(C)C(=O)CC[C@]23Oc2c(c(O)cc4c2C(=O)NC4=O)C[C@]13C` [SQ-02-S5-OX1(11)], the IC50 was 0.1 to 1 µg/mL (≈ 0.252 to 2.52 µM) in the data set on A/Osaka/5/70 (H3N2) (setting [3]); 0.1 µg/mL (≈ 0.252 µM) with B/91N759 (setting [4]); 0.01 to 0.1 µg/mL (≈ 0.0252 to 0.252 µM) in the data set with A/Kumamoto/5/67 (H2N2); 0.001 to 0.01 µg/mL (≈ 0.00252 to 0.0252 µM) in the data set with A/WSN/33 (H1N1) (setting [5]); 1 µg/mL (≈ 2.52 µM) with A/91/N796 (H3N2) (setting [6]). This compound also gave a CC50 in data set [1] of 25 to 30 µg/mL (≈ 62.9 to 75.5 µM).
With `CCOC(=O)C=CC(=O)Nc1ccc(S(=O)(=O)O[C@H]2C[C@@]34Oc5c(c(O)cc6c5CNC6=O)C[C@]3(C)[C@@H](C)CC[C@H]4C(C)(C)[C@H]2O)cc1` [Compound (50f), (6aR, 7S, 9aS, 11R, 12S, 13aS)-12-[4-(3-ethoxycarbonyl-1-oxo-2-propenyl)amino] phenylsulfonyloxy-2,3,6,6a, 7,8,9,9a, 10, 11, 12, 13-dodecahydro-5, 11-dihydroxy-6a, 7, 10, 10-tetramethyl-3-oxo-1H-benzo[8,8a][1]benzopyrano[2,3-e]isoindole], in data set [2], the IC50 was 0.01 µg/mL (≈ 0.0146 µM). The compound also returned a CC50 in the data set on MDBK cells of 5 µg/mL (≈ 7.32 µM).
The like results for `CC(=O)O[C@@H]1C(=O)C[C@@]23Oc4c(c(O)cc5c4CNC5=O)C[C@]2(C)[C@@H](C)CC[C@H]3C1(C)C` [Compound (53a), (6aR, 7S, 9aS, 11S, 13aS)-11-acetoxy-2,3,6,6a, 7,8,9,9a, 10 11, 12, 13-dodecahydro-5-hydroxy-6a, 7, 10, 10-tetramethyl-3,12-dioxo-1H-benzo[8,8a][1]benzopyrano[2,3-e]isoindole] were, in that order, 0.04 to 0.08 µg/mL and over 10 µg/mL.
As to `C[C@H]1CC[C@H]2C(C)(C)C(=O)CC[C@]23Oc2c(c(O)cc4c2CNC4=O)C[C@]13C` [SQ-02-S5-OX2(12)], the IC50 with A/Osaka/5/70 (H3N2) (setting [3]) is 1 to 10 µg/mL (≈ 2.61 to 26.1 µM); with B/91N759 (setting [4]), 0.1 to 1 µg/mL (≈ 0.261 to 2.61 µM); in the data set with A/Kumamoto/5/67 (H2N2), 0.01 to 0.1 µg/mL (≈ 0.0261 to 0.261 µM); with A/WSN/33 (H1N1) (setting [5]), 0.001 to 0.01 µg/mL (≈ 0.00261 to 0.0261 µM); with A/91/N796 (H3N2) (setting [6]), 1 µg/mL (≈ 2.61 µM). In [1], this compound returned a CC50 of 25 to 50 µg/mL (≈ 65.2 to 130 µM).
Consider `C[C@H]1CC[C@H]2C(C)(C)[C@H](O)CC[C@]23Oc2c(c(O)cc4c2C(=O)NC4=O)C[C@]13C` [Compound (70), (6aR, 7S, 9aS, 11R, 13aS)-2,3,6,6a, 7,8,9,9a, 10, 11, 12, 13-dodecahydro-5, 11-dihydroxy-6a, 7, 10, 10-tetramethyl-13-dioxo-1H-benzo[8,8a][1]benzopyrano[2,3-e]isoindole], for which the concentration for half-maximal inhibition (IC50) in [2] (72 h, read-out: IC50) was 0.008 µg/mL (≈ 0.02 µM). This compound showed a CC50 at 72 h in “in vitro” (mdbk cells) of 12.5 to 25 µg/mL (≈ 31.3 to 62.6 µM).
`CC(=O)N[C@H]1CC[C@@]23Oc4c(c(O)cc5c4CNC5=O)C[C@]2(C)[C@@H](C)CC[C@H]3C1(C)C` [Compound (47b), (6aR, 7S, 9aS, 11S, 13aS)-11-acetylamino-2,3,6,6a, 7,8,9,9a, 10, 11, 12, 13-dodecahydro-5-hydroxy-6a, 7, 10, 10-tetramethyl-3-oxo-1H-benzo[8,8a][1]benzopyrano[2,3-e]isoindole]: in data set [2] (72 h, read-out: IC50), the 50% inhibitory concentration (IC50) was determined as 0.02 µg/mL (≈ 0.0469 µM). Also, the CC50 in “in vitro” was over 10 µg/mL.
Take `CC(=O)N[C@H]1[C@H]([C@H](O)[C@H](O)CO)OC(C(=O)O)=C[C@@H]1NC(=N)N` [4-guanidino-Neu5Ac2en]: the “activity against influenza A and B” value with influenza A and B was “has not a satisfactory activity”.
Turning to `C[C@H]1CC[C@H]2C(C)(C)[C@H](OS(=O)(=O)c3ccccc3)CC[C@]23Oc2c(c(O)cc4c2CNC4=O)C[C@]13C` [Compound (13d), (6a R, 7 S, 9a S, 11 R, 13a S)-2,3,6,6a, 7,8,9,9a, 10, 11, 12, 13-dodecahydro-5-hydroxy-6a, 7, 10, 10-tetramethyl-3-oxo-11-phenylsulfonyloxy-1H-benzo[8,8a][1]benzopyrano[2,3-e]isoindole], in [2] (72 h, read-out: IC50), the IC50 is 0.02 to 0.06 µg/mL (≈ 0.038 to 0.114 µM). In addition, the CC50 in the data set “in vitro” is 10 µg/mL (≈ 19 µM).
Consider `C[C@H]1CC[C@H]2C(C)(C)C(=NN3CCOCC3)CC[C@]23Oc2c(c(O)cc4c2CNC4=O)C[C@]13C` [Compound (51f), (6aR, 7S, 9aS, 13aS)-2,3,6,6a, 7,8,9,9a, 10, 11, 12, 13-dodecahydro-5-hydroxy-6a, 7, 10, 10-tetramethyl-11-(1-oxa-4-azacyclohex-4-yl)imino-3-oxo-1H-benzo[8,8a][1]benzopyrano[2,3-e]isoindole], for which the IC50 in [2] (72 h, read-out: IC50) was found to be 0.05 µg/mL (≈ 0.107 µM). In the data set “in vitro”, this compound gave a CC50 of 25 µg/mL (≈ 53.5 µM).
